In patent EP1077981B1, “NOVEL CEPHALOSPORIN COMPOUNDS, PROCESSES FOR PREPARATION THEREOF AND ANTIMICROBIAL COMPOSITIONS CONTAINING THE SAME” (LG CHEMICAL LIMITED, priority 1998, dated 1999):
Values after ≈ are worked out from the molar mass of the structure shown. Read-outs that look alike come from different tables or passages of the source.

Key:
[1] = test system: Escherichia coli TEM9 2639E; test: MIC against standard strains (agar dilution); type: cell-based; details: TEM92639E; Escherichia coli TEM9 2639E; Mueller-Hinton agar, 20 hours at 37°C; read-out: MIC
Method in brief: (§1)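 Test compounds were serially diluted 2-fold in Mueller-Hinton agar, and each strain was spotted at 10^7 cfu/mℓ. Plates were incubated for 20 hours at 37°C, and the MIC was the lowest concentration inhibiting growth.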

Staphylococcus aureus 77 = test: MIC against standard strains (agar dilution); type: cell-based; details: Staphylococcus aureus 77; Mueller-Hinton agar, 20 hours at 37°C; read-out: MIC
Method in brief: as §1

[2] = test system: Moraxella catarrhalis 25240; test: MIC against standard strains (agar dilution); type: cell-based; details: Moraxella catarrhalis 25240; Mueller-Hinton agar, 20 hours at 37°C; read-out: MIC
Method in brief: as §1

[3] = test system: Klebsiella pneumoniae 2011E; test: MIC against standard strains (agar dilution); type: cell-based; details: Klebsiella pneumoniae 2011E; Mueller-Hinton agar, 20 hours at 37°C; read-out: MIC
Method in brief: as §1

[4] = test system: Citrobacter freundii 8090; test: MIC against standard strains (agar dilution); type: cell-based; details: Citrobacter freundii 8090; Mueller-Hinton agar, 20 hours at 37°C; read-out: MIC
Method in brief: as §1

Proteus vulgaris 6059 = test: MIC against standard strains (agar dilution); type: cell-based; details: Proteus vulgaris 6059; Mueller-Hinton agar, 20 hours at 37°C; read-out: MIC
Method in brief: as §1

[5] = test system: Enterococcus faecalis 29212; test: MIC against standard strains (agar dilution); type: cell-based; details: Enterococcus faecalis 29212; Mueller-Hinton agar, 20 hours at 37°C; read-out: MIC
Method in brief: as §1

[6] = test system: Enterobacter cloacae IND+VE 1194E; test: MIC against standard strains (agar dilution); type: cell-based; details: Enterobacter cloacae IND+VE 1194E; Mueller-Hinton agar, 20 hours at 37°C; read-out: MIC
Method in brief: as §1

[7] = test system: Salmonella typhimurium 14028; test: MIC against standard strains (agar dilution); type: cell-based; details: Salmonella enterica; Salmonella typhimurium 14028; Mueller-Hinton agar, 20 hours at 37°C; read-out: MIC
Method in brief: as §1

[8] = test system: Staphylococcus aureus 241; test: MIC against standard strains (agar dilution); type: cell-based; details: Staphylococcus aureus 241; Mueller-Hinton agar, 20 hours at 37°C; read-out: MIC
Method in brief: as §1

[9] = test system: Moraxella catarrhalis C2431; test: MIC against standard strains (agar dilution); type: cell-based; details: Moraxella catarrhalis C2431; Mueller-Hinton agar, 20 hours at 37°C; read-out: MIC
Method in brief: as §1

[10] = test system: Pseudomonas aeruginosa 6065Y; test: MIC against standard strains (agar dilution); type: cell-based; details: Pseudomonas aeruginosa 6065Y; Mueller-Hinton agar, 20 hours at 37°C; read-out: MIC
Method in brief: as §1

[11] = test system: Klebsiella aerogenes SHV-1 1976E; test: MIC against standard strains (agar dilution); type: cell-based; details: Klebsiella aerogenes, 20 h
Method in brief: as §1

Escherichia coli 10536 = test: MIC against standard strains (agar dilution); type: cell-based; details: Escherichia coli 10536; Mueller-Hinton agar, 20 hours at 37°C; read-out: MIC
Method in brief: as §1

[12] = test system: Serratia marcescens 1826E; test: MIC against standard strains (agar dilution); type: cell-based; details: Serratia marcescens 1826E; Mueller-Hinton agar, 20 hours at 37°C; read-out: MIC
Method in brief: as §1

[13] = test system: Staphylococcus aureus 6538p; test: MIC against standard strains (agar dilution); type: cell-based; details: Staphylococcus aureus 6538p; Mueller-Hinton agar, 20 hours at 37°C; read-out: MIC
Method in brief: as §1

[14] = test system: Klebsiella aerogenes K1+ 1082E; test: MIC against standard strains (agar dilution); type: cell-based; details: Klebsiella aerogenes K1+ 1082E; Mueller-Hinton agar, 20 hours at 37°C; read-out: MIC
Method in brief: as §1

[15] = Pharmacokinetic experiment (blood concentration by HPLC); type: in vivo, mice; details: male, mouse, blood, 20 mg/kg
Protocol: Test example 2: Pharmacokinetic experiment
Male mice, each of which has a body weight of […] were used in the present pharmacokinetic experiment. Test compounds were formulated into 1% of solution and then, the solution was administered by oral route and by injection with a dose of 20mg/kg, respectively. At the fixed interval of time after administration, blood was gathered from the mice. Concentrations of test compounds in blood were measured by HPLC quantitative analysis and based on the results, pharmacokinetic parameters were calculated.

[16] = intravenous, Injection, read-out: average conc.
[17] = intravenous, Injection, read-out: blood concentration, mouse-1
[18] = intravenous, Injection, read-out: blood concentration, mouse-2
[19] = other: injection, Injection, read-out: average conc.
[20] = other: injection, Injection, read-out: blood concentration, mouse-1
[21] = other: injection, Injection, read-out: blood concentration, mouse-2
[22] = po, Oral administration, read-out: average conc.
[23] = po, Oral administration, read-out: blood concentration, mouse-1
[24] = po, Oral administration, read-out: blood concentration, mouse-2
[25] = po, Oral administration, read-out: blood concentration, mouse-3

CO/N=C(\C(=O)NC1C(=O)N2C(C(=O)O)=C(Sc3cc(N)nc(N)n3)CSC12)c1csc(N)n1 (centres unmarked) [Compound No. 25, 7-[(Z)-2-(2-amino-thiazol-4-yl)-2-methoxyimino-acetylamino]-3-(2,6-diamino-pyrimidin-4-ylsulfanyl)-8-oxo-5-thia-1-azabicyclo[4,2,0]oct-2-ene-2-carboxylic acid] gave an MIC [1] of 32 µg/mL (≈ 61.1 µM), an MIC (Staphylococcus aureus 77) of 4 µg/mL (≈ 7.64 µM) and an MIC [2] of no more than 0.008 µg/mL. It also gave an MIC [3] of 0.5 µg/mL (≈ 0.955 µM), an MIC [4] of 1 µg/mL (≈ 1.91 µM) and an MIC (Proteus vulgaris 6059) of 0.016 µg/mL (≈ 0.0306 µM). For the same compound, the MIC [5] was greater than 64 µg/mL, the MIC [6] was greater than 64 µg/mL and the MIC [7] was 0.25 µg/mL (≈ 0.477 µM). The MIC [8] was 8 µg/mL (≈ 15.3 µM), the MIC [9] was no more than 0.008 µg/mL and the MIC [10] was 64 µg/mL (≈ 122 µM). The MIC [11] was 0.25 µg/mL (≈ 0.477 µM), the MIC (Escherichia coli 10536) was 0.063 µg/mL (≈ 0.12 µM) and the MIC [12] was 2 µg/mL (≈ 3.82 µM). It also gave an MIC [13] of 1 µg/mL (≈ 1.91 µM), an MIC [14] greater than 64 µg/mL and a concentration at 1 min [15, 16] of 96400 ng/mL. The concentration at 1 min [15, 17] was 120000 ng/mL, the concentration at 1 min [15, 18] was 72800 ng/mL and the concentration at 5 min [15, 16] was 41200 ng/mL. The concentration at 5 min [15, 17] was 51700 ng/mL, the concentration at 5 min [15, 18] was 30700 ng/mL and the concentration at 10 min [15, 16] was 29100 ng/mL. For the same compound, the concentration at 10 min [15, 17] was 37700 ng/mL, the concentration at 10 min [15, 18] was 20400 ng/mL and the concentration at 120 min [15, 16] was 1800 ng/mL. For the same compound, the concentration at 120 min [15, 17] was 2200 ng/mL, the concentration at 120 min [15, 18] was 1300 ng/mL and the concentration at 180 min [15, 16] was 800 ng/mL. The concentration at 180 min [15, 17] was 1100 ng/mL, the concentration at 180 min [15, 18] was 600 ng/mL and the concentration at 240 min [15, 16] was 400 ng/mL. The concentration at 240 min [15, 17] was 500 ng/mL, the concentration at 240 min [15, 18] was 300 ng/mL and the concentration at 20 min [15, 19] was 17100 ng/mL. The concentration at 20 min [15, 20] was 21600 ng/mL, the concentration at 20 min [15, 21] was 12700 ng/mL and the concentration at 40 min [15, 19] was 9800 ng/mL. It also gave a concentration at 40 min [15, 20] of 12200 ng/mL, a concentration at 40 min [15, 21] of 7300 ng/mL and a concentration at 60 min [15, 19] of 6100 ng/mL. For the same compound, the concentration at 60 min [15, 20] was 7600 ng/mL, the concentration at 60 min [15, 21] was 4600 ng/mL and the concentration at 90 min [15, 19] was 3300 ng/mL. It also gave a concentration at 90 min [15, 20] of 4300 ng/mL, a concentration at 90 min [15, 21] of 2400 ng/mL and a concentration at 5 min [15, 22] of 90 ng/mL. For the same compound, the concentration at 5 min [15, 23] was 70 ng/mL, the concentration at 5 min [15, 24] was 130 ng/mL and the concentration at 5 min [15, 25] was 60 ng/mL. It also gave a concentration at 10 min [15, 22] of 200 ng/mL, a concentration at 10 min [15, 23] of 160 ng/mL and a concentration at 10 min [15, 24] of 270 ng/mL. For the same compound, the concentration at 10 min [15, 25] was 140 ng/mL, the concentration at 20 min [15, 22] was 490 ng/mL and the concentration at 20 min [15, 23] was 280 ng/mL. It also gave a concentration at 20 min [15, 24] of 720 ng/mL, a concentration at 20 min [15, 25] of 270 ng/mL and a concentration at 40 min [15, 22] of 470 ng/mL. For the same compound, the concentration at 40 min [15, 23] was 270 ng/mL, the concentration at 40 min [15, 24] was 590 ng/mL and the concentration at 40 min [15, 25] was 350 ng/mL. It also gave a concentration at 60 min [15, 22] of 440 ng/mL, a concentration at 60 min [15, 23] of 160 ng/mL and a concentration at 60 min [15, 24] of 610 ng/mL. The concentration at 60 min [15, 25] was 260 ng/mL, the concentration at 90 min [15, 22] was 570 ng/mL and the concentration at 90 min [15, 23] was 70 ng/mL. For the same compound, the concentration at 90 min [15, 24] was 840 ng/mL, the concentration at 90 min [15, 25] was 290 ng/mL and the concentration at 120 min [15, 22] was 360 ng/mL. For the same compound, the concentration at 120 min [15, 23] was 60 ng/mL, the concentration at 120 min [15, 24] was 480 ng/mL and the concentration at 120 min [15, 25] was 240 ng/mL. It also gave a concentration at 180 min [15, 22] of 410 ng/mL, a concentration at 180 min [15, 23] of 60 ng/mL and a concentration at 180 min [15, 24] of 590 ng/mL. It also gave a concentration at 180 min [15, 25] of 240 ng/mL, a concentration at 240 min [15, 22] of 230 ng/mL and a concentration at 240 min [15, 23] of 60 ng/mL. It also gave a concentration at 240 min [15, 24] of 220 ng/mL and a concentration at 240 min [15, 25] of 230 ng/mL.
